This is an account of results in patent US12295936B2, “Immunomodulating urea azalides” (Zoetis Services LLC, priority 2020, dated 2025).

In test [1] the test system is BRD pathogens, M. haemolytica and P. multocida. As to the kind of experiment: MIC screening panel of BRD pathogens (antibacterial / non-antibacterial). The conditions noted are these: read-out: antibacterial / non-antibacterial (MIC for the BRD pathogens).
The test system of test [2] is IL-1β. As to the kind of experiment: LPS-stimulated whole bovine blood assay, MSD cytokine detection. Format: cell-based. The conditions noted are these: overstimulation of IL-1β, LPS-stimulated bovine whole blood.
The test system of test [3] is TNF-α. Described as above. Format: cell-based. Particulars: Bos taurus, LPS-stimulated bovine whole blood; read-out: TNF-α (IC50 μM).
Test [4] concerns IL-6. Described as above. Format: cell-based. Particulars: Bos taurus, LPS-stimulated bovine whole blood; read-out: IL-6 (IC50 μM). The source says: In order to correlate RNA sequencing data to cytokine changes the whole blood assay was utilized. […] The enhancement result represents an overall stimulation of cytokine levels due to cellular stress or potential toxicity with increasing concentrations of the compound, representing a typical bell shape response curve for immunomodulatory activity.

The test system of test [5] is P. multocida 46572. As to the kind of experiment: In vivo mouse lung infection challenge model (murine efficacy). Also noted: species or system CD-1 female mice. Particulars: 20 mg/kg subcutaneous, P. multocida challenge; harmonized against the comparative vehicle survival rate. The method in brief:
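CD-1 female mice challenged intranasally with P. multocida 46572 at mid-log phase (target 5×10^2 CFU/mouse). Compounds given subcutaneously at 20 mg/kg in buffered (~pH 5.4) propylene glycol/monothioglycerol/water. Mortality observed Days 1–10, analysed by generalized mixed model; survival harmonized against vehicle survival rate.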

Test [6] has as its system H. somni. As to the kind of experiment: In-vitro MIC model (CLSI broth micro-dilution). Particulars: Histophilus somni. A general note: Broth dilution looks for growth in wells or tubes with falling amounts of substance.

In brackets after ≈: the same amount, converted by molar mass.

Turning to `CC[C@H]1OC(=O)[C@H](C)[C@@H](O[C@H]2C[C@@](C)(OC)[C@@](C)(O)[C@H](C)O2)[C@H](C)[C@@H](O[C@@H]2O[C@H](C)C[C@H](N(C)C(=O)N(C)c3ccc(C(F)(F)F)cc3)[C@H]2O)[C@](C)(O)C[C@@H](C)CN[C@H](C)[C@@H](O)[C@]1(C)O` [Example B-13, 1-((2S,3R,4S,6R)-2-(((2R,3S,4R,5R,8R,10R,11R,12S,13S,14R)-2-ethyl-3,4,10-trihydroxy-13-(((2R,4R,5S,6S)-5-hydroxy-4-methoxy-4,5,6-trimethyltetrahydro-2H-pyran-2-yl)oxy)-3,5,8,10,12,14-hexamethyl-15-oxo-1-oxa-6-azacyclopentadecan-11-yl)oxy)-3-hydroxy-6-methyltetrahydro-2H-pyran-4-yl)-1,3-dimethyl-3-(4-(trifluoromethyl)phenyl)urea], the MIC in test [1] was more than 64 µg/mL. Further, the “IL-1β OS of LPS” value in test [2] came to 16 µM. Besides, the results for the IC50 in test [3] and in test [4] were 14 µM and 51 µM, respectively. Also, in test [5], the “Mouse Murine Percent Survival” value came to 48%.
In the case of `CS(=O)(=O)c1ccc([C@@H](O)[C@@H](CF)NC(=O)C(Cl)Cl)cc1` [florfenicol], the MIC in test [6] fell in the range of 0.12 to 2 µg/mL (≈ 0.335 to 5.58 µM).
As to `CCCNC[C@]1(O)[C@H](C)O[C@@H](O[C@H]2[C@H](C)[C@@H](O[C@@H]3O[C@H](C)C[C@H](N(C)C(=O)N(C)c4ccc(C(F)(F)F)cc4)[C@H]3O)[C@](C)(O)C[C@@H](C)CN[C@H](C)[C@@H](O)[C@](C)(O)[C@@H](CC)OC(=O)[C@@H]2C)C[C@@]1(C)OC` [Example H-13, 1-((2S,3R,4S,6R)-2-(((2R,3S,4R,5R,8R,10R,11R,12S,13S,14R)-2-ethyl-3,4,10-trihydroxy-13-(((2R,4R,5S,6S)-5-hydroxy-4-methoxy-4,6-dimethyl-5-((propylamino)methyl)tetrahydro-2H-pyran-2-yl)oxy)-3,5,8,10,12,14-hexamethyl-15-oxo-1-oxa-6-azacyclopentadecan-11-yl)oxy)-3-hydroxy-6-methyltetrahydro-2H-pyran-4-yl)-1,3-dimethyl-3-(4-(trifluoromethyl)phenyl)urea], the MIC in test [1] was more than 64 µg/mL. Further, the “IL-1β OS of LPS” value in test [2] was 6 µM. The values for the IC50 in test [3] and in test [4] were 12 µM and 9 µM, respectively. Moreover, the “Mouse Murine Percent Survival” value in test [5] came out at 59%.
For `CCCNC[C@]1(O)[C@H](C)O[C@@H](O[C@H]2[C@H](C)[C@@H](O[C@@H]3O[C@H](C)C[C@H](N(Cc4ccc(OC)cc4)C(=O)N(C)c4ccccc4)[C@H]3O)[C@](C)(O)C[C@@H](C)CN[C@H](C)[C@@H](O)[C@](C)(O)[C@@H](CC)OC(=O)[C@@H]2C)C[C@@]1(C)OC` [Example H-60, 1-((2S,3R,4S,6R)-2-(((2R,3S,4R,5R,8R,10R,11R,12S,13S,14R)-2-ethyl-3,4,10-trihydroxy-13-(((2R,4R,5S,6S)-5-hydroxy-4-methoxy-4,6-dimethyl-5-((propylamino)methyl)tetrahydro-2H-pyran-2-yl)oxy)-3,5,8,10,12,14-hexamethyl-15-oxo-1-oxa-6-azacyclopentadecan-11-yl)oxy)-3-hydroxy-6-methyltetrahydro-2H-pyran-4-yl)-1-(4-methoxybenzyl)-3-methyl-3-phenylurea], the MIC in test [1] is more than 64 µg/mL. The “IL-1β OS of LPS” value in test [2] is 3 µM. Moreover, the figures for the IC50 in test [3] and in test [4] were 5 µM and 7 µM, respectively. Besides, the “Mouse Murine Percent Survival” value in test [5] is 72%.
`CCN1CCN(c2cc3c(cc2F)c(=O)c(C(=O)O)cn3C2CC2)CC1` [enrofloxacin] yielded an MIC in test [6] of 0.06 to 1 µg/mL (≈ 0.167 to 2.78 µM).
Take `CCCNC[C@]1(O)[C@H](C)O[C@@H](O[C@H]2[C@H](C)[C@@H](O[C@@H]3O[C@H](C)C[C@H](N(C)C(=O)N(c4ccccc4)c4ccccc4)[C@H]3O)[C@](C)(O)C[C@@H](C)CN[C@H](C)[C@@H](O)[C@](C)(O)[C@@H](CC)OC(=O)[C@@H]2C)C[C@@]1(C)OC` [Example H-39, 1-((2S,3R,4S,6R)-2-(((2R,3S,4R,5R,8R,10R,11R,12S,13S,14R)-2-ethyl-3,4,10-trihydroxy-13-(((2R,4R,5S,6S)-5-hydroxy-4-methoxy-4,6-dimethyl-5-((propylamino)methyl)tetrahydro-2H-pyran-2-yl)oxy)-3,5,8,10,12,14-hexamethyl-15-oxo-1-oxa-6-azacyclopentadecan-11-yl)oxy)-3-hydroxy-6-methyltetrahydro-2H-pyran-4-yl)-1-methyl-3,3-diphenylurea]: the MIC in test [1] is more than 64 µg/mL. Moreover, the “IL-1β OS of LPS” value in test [2] was determined as 6 µM. For the same compound, the IC50 in test [3] was 21 µM; in test [4] it was 19 µM. For the same compound, in test [5], the “Mouse Murine Percent Survival” value is 44%.
For `CC[C@H]1OC(=O)[C@H](C)[C@@H](O[C@H]2C[C@@](C)(OC)[C@](O)(CN3CC(N4CCOCC4)C3)[C@H](C)O2)[C@H](C)[C@@H](O[C@@H]2O[C@H](C)C[C@H](N(C)C(=O)N(C)c3ccccc3)[C@H]2O)[C@](C)(O)C[C@@H](C)CN[C@H](C)[C@@H](O)[C@]1(C)O` [Example J-4, 1-((2S,3R,4S,6R)-2-(((2R,3S,4R,5R,8R,10R,11R,12S,13S,14R)-2-ethyl-3,4,10-trihydroxy-13-(((2R,4R,5S,6S)-5-hydroxy-4-methoxy-4,6-dimethyl-5-((3-morpholinoazetidin-1-yl)methyl)tetrahydro-2H-pyran-2-yl)oxy)-3,5,8,10,12,14-hexamethyl-15-oxo-1-oxa-6-azacyclopentadecan-11-yl)oxy)-3-hydroxy-6-methyltetrahydro-2H-pyran-4-yl)-1,3-dimethyl-3-phenylurea] the same measures were more than 64 µg/mL, 1 µM, 7 µM, 3 µM and 5%.
For `CCCNC[C@]1(O)[C@H](C)O[C@@H](O[C@H]2[C@H](C)[C@@H](O[C@@H]3O[C@H](C)C[C@H](N(C)C(=O)N(C)c4ccc(C(F)(F)F)cc4)[C@H]3O)[C@](C)(O)C[C@@H](C)CN(C)[C@H](C)[C@@H](O)[C@](C)(O)[C@@H](CC)OC(=O)[C@@H]2C)C[C@@]1(C)OC` [Example H-100, 1-((2S,3R,4S,6R)-2-(((2R,3S,4R,5R,8R,10R,11R,12S,13S,14R)-2-ethyl-3,4,10-trihydroxy-13-(((2R,4R,5S,6S)-5-hydroxy-4-methoxy-4,6-dimethyl-5-((propylamino)methyl)tetrahydro-2H-pyran-2-yl)oxy)-3,5,6,8,10,12,14-heptamethyl-15-oxo-1-oxa-6-azacyclopentadecan-11-yl)oxy)-3-hydroxy-6-methyltetrahydro-2H-pyran-4-yl)-1,3-dimethyl-3-(4-(trifluoromethyl)phenyl)urea] the same measures were more than 64 µg/mL, 16 µM, 6 µM, 10 µM and 19%.

As usually defined, the IC50 is the midpoint of a concentration-inhibition curve.
